Where “and” joins values, the source holds several entries; their conditions need not be identical. Equal entries are not always repeated. No end group written: not given here.
Assays:
[1] = tested on: differentiated Caco-2 cell monolayers; assay: Transepithelial transport and metabolism across differentiated Caco-2 cell monolayers; type: in vitro ADME, human; conditions: for detected at the AP side, P7 tested within a mixture: AP solutions of differentiated Caco-2 collected after 120 min; for amount in the BL compartment after 60 min, peptide alone / amount in the BL compartment after 60 min, P7 in the mixture / absorbed amount after 2 h, P7 in the mixture: HPLC–Chip–MS/MS; for rate of transport, peptide alone: AP pH 6.0 (MES), BL pH 7.4
Method: For differentiation, Caco-2 cells were seeded on polycarbonate filters with a 12 mm diameter and 0.4 μm pore diameter (Transwell, Corning, Inc., Lowell, MA, U.S.A.) at a 3.5 × 10^5 cells/cm^2 density in complete medium supplemented with 10% FBS in both AP and BL compartments for 2 days to allow for the formation of a confluent cell monolayer. Starting from day 3 after seeding, cells were transferred to FBS-free medium in both compartments, supplemented with ITS [final concentration of 10 mg/L insulin (I), 5.5 mg/L transferrin (T), and 6.7 μg/L sodium selenite (S), GIBCO–Invitrogen, San Giuliano Milanese, Italy] only in the BL compartment, and allowed to differentiate for 18–21 days with regular medium changes 3 times weekly.[12]
The transepithelial electrical resistance (TEER) of differentiated Caco-2 cells was measured at 37 °C using the voltmeter apparatus Millicell (Millipore Co., Billerica, MA, U.S.A.), immediately before and at the end of the transport experiments. In addition, at the end of transport experiments, cells were incubated from the AP side with 1 mM phenol red in phosphate-buffered saline (PBS) containing Ca^2+ (0.9 mM) and Mg^2+ (0.5 mM) for 1 h at 37 °C, to monitor the paracellular permeability of the cell monolayer. The BL solutions were then collected, and NaOH (70 μL, 0.1 N) was added before reading the absorbance at 560 nm by a microplate reader Synergy H1 from Biotek (Winooski, VT, U.S.A.). Phenol red passage was quantified using a standard phenol red curve. Only filters showing TEER values and phenol red passages similar to untreated control cells were considered for peptide transport analysis.
Prior to experiments, the cell monolayer integrity and differentiation were checked by TEER measurement as described in detail above. Cells were then washed twice, and peptide transportation by intestinal cells was assayed. Transport experiments were performed in transport buffer solution (137 mM NaCl, 5.36 mM KCl, 1.26 mM CaCl2, 1.1 mM MgCl2, and 5.5 mM glucose) following conditions previously described.[13] To reproduce the pH conditions existing in vivo in the small intestinal mucosa, AP solutions were maintained at pH 6.0 (buffered with 10 mM morpholinoethanesulfonic acid) and BL solutions were maintained at pH 7.4 (buffered with 10 mM N-2-hydroxyethylpiperazine-N-4-[…]). Prior to transport experiments, cells were washed twice with 500 μL of PBS containing Ca^2+ and Mg^2+. Peptide transportation by mature Caco-2 cells was assayed by loading the AP compartment with P7 and/or LTFPG (500 μM) in the AP transport solution (500 μL) and the BL compartment with the BL transport solution (700 μL). The plates were incubated at 37 °C, and the BL solutions were collected at different time points (i.e., 15, 30, 60, 90, and 120 min) and replaced with fresh solutions prewarmed at 37 °C. All BL solutions together with the AP solutions collected at the end of the transport experiment were stored at −80 °C prior to analysis. Three independent transport experiments were performed, each in duplicate.
Quantitative analysis of P7 in the AP and BL samples were carried out by ion trap mass spectrometry (MS) in multiple reaction monitoring (MRM) mode, monitoring two of the most intense diagnostic transitions, after optimization of the acquisition parameters, such as retention time, MS profile, and tandem mass spectrometry (MS/MS) fragmentation spectrum.[14],[15] All further details regarding liquid chromatography–tandem mass spectrometry (LC–MS/MS) operating conditions and method validations are described in the Supporting Information.
The metabolic degradation products deriving from the hydrolytic activity of brush border membrane peptidases were investigated by an untargeted approach (for further details, see the Supporting Information). […]

DPP-IV = DPP-IV (Homo sapiens, UniProt P27487); assay: Stability of P7 in the presence of DPP-IV; type: in vitro ADME; conditions: P7 (500 μM) with purified recombinant DPP-IV, Tris–HCl pH 8.0, 37 °C, 5, 30 and 120 min; LC–MS MRM
Chain of DPP-IV (P27487 whole entry): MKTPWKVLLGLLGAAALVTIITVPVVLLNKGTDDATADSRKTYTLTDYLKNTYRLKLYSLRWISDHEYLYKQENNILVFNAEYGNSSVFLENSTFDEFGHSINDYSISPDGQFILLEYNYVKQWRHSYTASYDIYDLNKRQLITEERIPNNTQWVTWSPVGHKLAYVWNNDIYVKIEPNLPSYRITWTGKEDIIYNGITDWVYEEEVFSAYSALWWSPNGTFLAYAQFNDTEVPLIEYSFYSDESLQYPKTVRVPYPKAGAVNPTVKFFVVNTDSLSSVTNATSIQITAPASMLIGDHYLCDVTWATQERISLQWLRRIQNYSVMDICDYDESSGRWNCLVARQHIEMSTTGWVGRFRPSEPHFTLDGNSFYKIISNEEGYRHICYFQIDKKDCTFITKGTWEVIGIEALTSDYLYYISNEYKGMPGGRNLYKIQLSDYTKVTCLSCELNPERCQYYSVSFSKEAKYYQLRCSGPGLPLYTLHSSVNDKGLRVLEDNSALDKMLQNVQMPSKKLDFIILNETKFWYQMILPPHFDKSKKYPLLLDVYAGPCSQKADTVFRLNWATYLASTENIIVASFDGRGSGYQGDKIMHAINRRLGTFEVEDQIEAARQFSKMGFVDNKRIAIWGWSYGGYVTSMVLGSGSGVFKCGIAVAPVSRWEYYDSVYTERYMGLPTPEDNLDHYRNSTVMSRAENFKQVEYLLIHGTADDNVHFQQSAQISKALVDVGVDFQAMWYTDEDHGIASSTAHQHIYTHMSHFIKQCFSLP
Method: The experiments were carried out in microcentrifuge tubes. Each reaction (100 μL) was prepared by adding the reagents in the following order: 1× DPP-IV assay buffer [20 mM Tris–HCl at pH 8.0 containing 100 mM NaCl and 1 mM ethylenediaminetetraacetic acid (EDTA)] (80 μL), P7 solution (10 μL, 500 μM), and finally DPP-IV (10 μL). Subsequently, the samples were mixed and kept at 37 °C in a thermoblock for 5, 30, and 120 min. At the end of the reactions, DPP-IV was inactivated by adding 200 μL of precooled acetonitrile (ACN) to each tube; then the samples were centrifuged for 10 min at 13300g at 4 °C; and the supernatant was collected. P7 and LTFPG were loaded onto the enrichment column (Zorbax 300SB-C18, 5 μm pore size) at a flow rate of 4 μL/min using isocratic 100% C solvent phase (99% water, 1% ACN, and 0.1% formic acid). After the cleanup, P7 and LTFPG were separated on a 150 mm × 75 μm analytical column (Zorbax300SB-C18, 5 μm pore size) at the constant flow rate of 300 nL/min. The LC solvent A was 95% water, 5% ACN, and 0.1% formic acid; solvent B was 5% water, 95% ACN, and 0.1% formic acid. The nanopump gradient program was as follows: 5% solvent B (0 min), 70% solvent B (0–8 min), and back to 5% solvent B in 2 min. Post-time was 10 min. The drying gas temperature was 300 °C, and the flow rate was 3 L/min (nitrogen). Data acquisition occurred in positive ionization mode. […]

[2] = untargeted HPLC–Chip–MS/MS, × = detected
[3] = differentiated Caco-2, AP to BL, peptide alone, 500 μM in AP, 37 °C, AP pH 6.0, BL pH 7.4
[4] = differentiated Caco-2, AP to BL, peptide alone, 500 μM in AP, 37 °C, AP pH 6.0, BL pH 7.4, mean ± sd
[5] = differentiated Caco-2 on Transwell, AP to BL, peptide alone, 500 μM in AP, 37 °C, BL sampled 15–120 min, HPLC–Chip–MS/MS MRM, mean ± sd, three independent experiments
[6] = differentiated Caco-2, AP to BL, mixture with P3 and P5, each 500 μM in AP, 37 °C
[7] = differentiated Caco-2, AP to BL, mixture with P3 and P5, each 500 μM in AP, 37 °C, mean ± sd

In the case of LTFPG [LTFPG], the “detected at the AP side, P7 tested within a mixture” value [1, 2] is reported as “×”, the “amount in the BL compartment after 60 min, peptide alone” value (from here on “amount … peptide alone”) [1, 3] is reported as 0.412 nmol and the “amount … peptide alone” value [1, 4] is reported as 0.22 ± 0.003 µg. For the same substance, the “lag period for transport, peptide alone” value ([1]; differentiated Caco-2, AP to BL, peptide alone, 500 μM in AP, AP pH 6.0, BL pH 7.4, 37 °C) was “without a lag period”, the “rate of transport, peptide alone” value [1, 5] was 3.7 ± 0.8 ng mL^–1 min^–1 and the “transport in the presence of wortmannin” value ([1]; mature Caco-2 cells, wortmannin, inhibitor of the transcellular passage) was “transported also in the presence of wortmannin”. For the same substance, the “hydrolysis of P7 by DPP-IV (formation of LTFPG)” value (DPP-IV) was “clearly detectable after 2 h of incubation”.
With LTFPGSAED [P7] the “detected at the AP side, P7 tested as individual species (alone)” value ([1]; AP solutions of differentiated Caco-2 at the end of the transport experiment, untargeted HPLC–Chip–MS/MS, × = detected) was “×”, the “detected at the AP side, P7 tested within a mixture” value [1, 2] was “×” and the “fold higher amount in BL when tested alone than in the mixture” value ([1]; after 60 min of incubation) was “about 4 fold”. For the same substance, the “amount in the BL compartment after 60 min, P7 in the mixture” value [1, 6] was 0.064 nmol, the “amount in the BL compartment after 60 min, P7 in the mixture” value [1, 7] was 0.06 ± 0.003 µg and the “absorbed amount after 2 h, P7 in the mixture” value [1, 6] was 0.235 nmol. The “absorbed amount after 2 h, P7 in the mixture” value [1, 7] was 0.22 ± 0.5 µg, the “lag period for transport, P7 in a mixture” value ([1]; differentiated Caco-2, AP to BL, mixture with P3 and P5, each 500 μM in AP, AP pH 6.0, BL pH 7.4, 37 °C) was 27.7 min and 27 min and the “amount … peptide alone” value [1, 3] was 0.278 nmol. The “amount … peptide alone” value [1, 4] was 0.26 ± 0.02 µg, the “rate of transport, P7 in a mixture” value ([1]; differentiated Caco-2 on Transwell, AP to BL, mixture with P3 and P5, each 500 μM in AP, AP pH 6.0, BL pH 7.4, 37 °C, BL sampled 15–120 min, HPLC–Chip–MS/MS MRM, mean ± sd, three independent experiments) was 1.98 ± 0.21 ng mL^–1 min^–1 and the “rate of transport, peptide alone” value [1, 5] was 4.2 ± 0.6 ng mL^–1 min^–1. For the same substance, the “hydrolysis of P7 by DPP-IV (formation of LTFPG)” value (DPP-IV) was “subjected to DPP-IV hydrolysis”.
